Source: PubChem BioAssay (NCI)
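Compound exposure: 48 hours, 5 concentrations, 96-well plates. Here, GI50 denotes the concentration required for 50% inhibition of growth. TGI is the concentration that stops growth completely.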

How the values were obtained:
Test in all cases: NCI tumour cell line growth inhibition, 48 h
COLO 205 colon = tested on: COLO 205 colon
A549 NSCLC = tested on: A549 NSCLC
SNB-19 CNS = tested on: SNB-19 CNS
UACC-257 melanoma = tested on: UACC-257 melanoma
HL-60(TB) leukemia = tested on: HL-60(TB) leukemia
NCI-H226 lung = tested on: NCI-H226 lung
SK-MEL-28 melanoma = tested on: SK-MEL-28 melanoma
RPMI-8226 leukemia = tested on: RPMI-8226 leukemia
BT-549 breast = tested on: BT-549 breast
M14 melanoma = tested on: M14 melanoma
NCI-H23 lung = tested on: NCI-H23 lung
UO-31 renal = tested on: UO-31 renal
SW-620 colon = tested on: SW-620 colon
SR leukemia = tested on: SR leukemia
NCI-H522 lung = tested on: NCI-H522 lung
HS 578T breast = tested on: HS 578T breast
KM12 colon = tested on: KM12 colon
NCI/ADR-RES ovarian = tested on: NCI/ADR-RES ovarian
MCF7 breast = tested on: MCF7 breast
OVCAR-3 ovarian = tested on: OVCAR-3 ovarian
CAKI-1 renal = tested on: CAKI-1 renal
SF-539 CNS = tested on: SF-539 CNS
SN12C renal = tested on: SN12C renal
HCC-2998 colon = tested on: HCC-2998 colon
HCT-116 colon = tested on: HCT-116 colon
RXF 393 renal = tested on: RXF 393 renal
A498 renal = tested on: A498 renal
SK-MEL-5 melanoma = tested on: SK-MEL-5 melanoma
SK-MEL-2 melanoma = tested on: SK-MEL-2 melanoma
HOP-62 NSCLC = tested on: HOP-62 NSCLC
NCI-H460 lung = tested on: NCI-H460 lung
MDA-MB-231 breast = tested on: MDA-MB-231 breast
786-0 renal = tested on: 786-0 renal
SNB-75 CNS = tested on: SNB-75 CNS
HT29 colon = tested on: HT29 colon
OVCAR-5 ovarian = tested on: OVCAR-5 ovarian
DU-145 prostate = tested on: DU-145 prostate
OVCAR-4 ovarian = tested on: OVCAR-4 ovarian
EKVX NSCLC = tested on: EKVX NSCLC
UACC-62 melanoma = tested on: UACC-62 melanoma
K-562 leukemia = tested on: K-562 leukemia
IGROV1 ovarian = tested on: IGROV1 ovarian
U251 CNS = tested on: U251 CNS
T-47D breast = tested on: T-47D breast
HOP-92 NSCLC = tested on: HOP-92 NSCLC
OVCAR-8 ovarian = tested on: OVCAR-8 ovarian
LOX IMVI melanoma = tested on: LOX IMVI melanoma
HCT-15 colon = tested on: HCT-15 colon
MOLT-4 leukemia = tested on: MOLT-4 leukemia
CCRF-CEM leukemia = tested on: CCRF-CEM leukemia
ACHN renal = tested on: ACHN renal
SF-295 CNS = tested on: SF-295 CNS
SK-OV-3 ovarian = tested on: SK-OV-3 ovarian
SF-268 CNS = tested on: SF-268 CNS

## COc1cc(/C=C/C(=O)c2cc(OC)c(OC)c(OC)c2)ccc1Oc1nc2c(c(=O)n(C)c(=O)n2C)n1C
COLO 205 colon
  GI50: 1.91 µM
  TGI: 3.62 µM
A549 NSCLC
  GI50: 2.2 µM
  TGI: 6.52 µM
SNB-19 CNS
  GI50: 2.71 µM
  TGI: 13.5 µM
UACC-257 melanoma
  GI50: 2.05 µM
  TGI: 4.63 µM
HL-60(TB) leukemia
  GI50: 2.17 µM
  TGI: 5.32 µM
NCI-H226 lung
  GI50: 2.98 µM
  TGI: 8.43 µM
SK-MEL-28 melanoma
  GI50: 2.57 µM
  TGI: 7.03 µM
RPMI-8226 leukemia
  GI50: 1.2 µM
  TGI: 4.91 µM
BT-549 breast
  GI50: 1.56 µM
  TGI: 3.02 µM
M14 melanoma
  GI50: 1.87 µM
  TGI: 4.55 µM
NCI-H23 lung
  GI50: 1.85 µM
  TGI: 4.27 µM
UO-31 renal
  GI50: 1.6 µM
  TGI: 3.1 µM
SW-620 colon
  GI50: 1.6 µM
  TGI: 3.46 µM
SR leukemia
  GI50: 1.21 µM
  TGI: 4.89 µM
NCI-H522 lung
  GI50: 1.43 µM
  TGI: 2.81 µM
HS 578T breast
  GI50: 7.93 µM
  TGI: > 100 µM
KM12 colon
  GI50: 1.62 µM
  TGI: 3.16 µM
NCI/ADR-RES ovarian
  GI50: 2.96 µM
  TGI: > 100 µM
MCF7 breast
  GI50: 2.2 µM
  TGI: 27.6 µM
OVCAR-3 ovarian
  GI50: 2.37 µM
  TGI: 4.88 µM
CAKI-1 renal
  GI50: 2.22 µM
  TGI: 7.92 µM
SF-539 CNS
  GI50: 2.73 µM
  TGI: 7.74 µM
SN12C renal
  GI50: 2.24 µM
  TGI: 7.79 µM
HCC-2998 colon
  GI50: 1.84 µM
  TGI: 3.35 µM
HCT-116 colon
  GI50: 0.684 µM
  TGI: 2.06 µM
RXF 393 renal
  GI50: 2.03 µM
  TGI: 3.65 µM
A498 renal
  GI50: 2.51 µM
  TGI: 10.2 µM
SK-MEL-5 melanoma
  GI50: 1.75 µM
  TGI: 3.33 µM
SK-MEL-2 melanoma
  GI50: 3.35 µM
  TGI: 7.78 µM
HOP-62 NSCLC
  GI50: 2.63 µM
  TGI: 5.89 µM
NCI-H460 lung
  GI50: 2.24 µM
  TGI: 6.37 µM
MDA-MB-231 breast
  GI50: 2.55 µM
  TGI: 20.3 µM
786-0 renal
  GI50: 1.63 µM
  TGI: 3.26 µM
SNB-75 CNS
  GI50: 1.77 µM
  TGI: 7.81 µM
HT29 colon
  GI50: 1.87 µM
  TGI: 3.9 µM
OVCAR-5 ovarian
  GI50: 2.9 µM
  TGI: 7.41 µM
DU-145 prostate
  GI50: 3.92 µM
  TGI: 15.5 µM
OVCAR-4 ovarian
  GI50: 2.49 µM
  TGI: > 100 µM
EKVX NSCLC
  GI50: 26.5 µM
  TGI: > 100 µM
UACC-62 melanoma
  GI50: 1.81 µM
  TGI: 3.61 µM
K-562 leukemia
  GI50: 2.29 µM
  TGI: 8.23 µM
IGROV1 ovarian
  GI50: 2.5 µM
  TGI: 5.35 µM
U251 CNS
  GI50: 1.28 µM
  TGI: 2.6 µM
T-47D breast
  GI50: 4.39 µM
  TGI: 65.4 µM
HOP-92 NSCLC
  GI50: 2.09 µM
  TGI: 5.84 µM
OVCAR-8 ovarian
  GI50: 1.73 µM
  TGI: 5.2 µM
LOX IMVI melanoma
  GI50: 1.14 µM
  TGI: 2.64 µM
HCT-15 colon
  GI50: 2.56 µM
  TGI: > 100 µM
MOLT-4 leukemia
  GI50: 2.29 µM
  TGI: 6.34 µM
CCRF-CEM leukemia
  GI50: 1.97 µM
  TGI: 6.48 µM
ACHN renal
  GI50: 2.93 µM
  TGI: 8.06 µM
SF-295 CNS
  GI50: 2.65 µM
  TGI: 13 µM
SK-OV-3 ovarian
  GI50: 3.73 µM
  TGI: 35.5 µM
SF-268 CNS
  GI50: 3.29 µM
  TGI: 10.2 µM
